Laboratory results as given in patent publication US20060019890A1, “Method for treating cardiac remodeling following myocardial injury” (priority 2004, published 2006).

Columns and labels:
[1] = Plasma level of aldosterone in L-NAME/AngII acute myocardial injury model; type: in vivo; conditions: L-NAME/AngII rats, rat BNP i.v. infusion day 10 to day 14
Procedure: (§1) In a related study, an in vivo model for acute myocardial injury was used to explore the effects of BNP. Male Sprague Dawley rats ranging in weight from 225 to 250 gm were utilized. Acute myocardial injury was induced by administration of Nω-nitro-L-arginine methyl ester (L-NAME, 40 mg/kg/day)salt (1% NaCl) plus angiotensin II (AngII, 0.5 mg/kg/day) in the rats. The L-NAME was administered in drinking water from day 1 to day 14. Angiotensin II was continuously infused subcutaneously with an osmotic pump from day 11 to day 14. Rat BNP ([…]) was intravenously infused through an external infusion pump from day 10 to day 14.
(§2) Systolic blood pressure, plasma level of aldosterone, cardiac function heart/body weight ration and gene expression in the heart were analyzed. Systolic blood pressure was monitored via tail cuff technique with an IITC blood pressure recording system. Cardiac function was monitored via a Millar ARIA Pressure Volume Conductance System with an 1.4 F catheter. Gene expression as referenced above with results provided in FIG. 12 were monitored by RT-PCR with an ABI Prism™ 7700 sequence detection system.

[2] = tested on: acute myocardial injury; experiment: Cardiac function (Millar pressure volume conductance system) in L-NAME/AngII acute myocardial injury model; type: in vivo, rat; conditions: L-NAME/AngII rats
Procedure: as §1, §2

[3] = tested on: human cardiac fibroblasts; experiment: Western blot analysis of Collagen 1 and Fibronectin protein; type: cell-based; conditions: 48 h; for effect on BNP inhibition of TGFβ-induced Collagen-1 expression, Western blot: U0126 0.1-10 μmol/L, PD98059 10 μmol/L
Procedure: (§3) Lysis was induced with 0.2 ml of buffer containing 20 mM Tris-HCL, pH 7.9, 137 mM NaCl, 1% Triton X-100, 5 mM EDTA, 10 mM NaF, 1 mM β-glycerophosphate, and protease inhibitor cocktail. The protein concentration of each lysate was measured using coomassie protein reagent from PIERCE. Twenty μg of protein from each sample was loaded and electrophoresed on 4-12% gradient polyacrylamide gels and electrophoretically transferred to nitrocellulose membranes (Invitrogen, San Diego, Calif.). The membranes were incubated with rabbit anti-human Collagen 1 antibody (Cortex Biochem, San Leandro, Calif.), HRP-conjugated anti-human Fibronectin antibody, or goat anti-Actin antibody (Santa Cruz Biotehnology, Santa Cruz, Calif.) in TBST buffer containing 20 mM Tris-HCl, pH 7.5, 150 mM NaCl, 0.1% Tween-20, and 5% nonfat dried milk at 4° C. for ˜16 h. For ERK phosphorylation, cells were treated with 0.5 μmol/L BNP in the presence of 1 μmol/L KT5823 or 10 μmol/L U0126 for 15 min; the membranes were incubated with rabbit anti-human phospho-ERK ½ antibody or rabbit anti-human ERK ½ antibody (Cell Signaling, Beverly, Mass.). For secondary antibody detection, membranes were incubated with HRP-conjugated anti-rabbit antibody or anti-goat antibody at room temperature for 1 h and washed 3 times with TBST buffer. The blots were soaked in ECL Plus reagent for 5 min and exposed to KODAK x-ray film. Signals were identified and quantified using a Typhoon Scanner and Densitometer from Amersham Biosciences (Piscataway, N.J.). Data was analyzed by ANOVA using the Newman-Keuls test to assess significance. Results cGMP Production in Cardiac Fibroblasts

[4] = tested on: human cardiac fibroblasts; experiment: cDNA microarray gene expression profiling of TGFβ- and/or BNP-treated cardiac fibroblasts
Procedure: Two lots of primary human cardiac fibroblasts, derived from a person (lot 1) and a person (lot 2), were provided by Cambrex Bio Science (Walkersville, Md.). Cells stained positive for α-smooth muscle actin and vimenfin antibodies corroborating their identity as cardiac fibroblasts and myofibroblasts. Both lots were used for the real-time RT-PCR studies; lot 1 was used for the microarray analysis. Cells at passage 3-5 were cultured in FGM containing 15% FBS. At confluence, cells were split and cultured in 6-well plates for 24 h.
Gene expression profiles were determined from cDNA microarrays containing 8,600 elements derived from clones isolated from normalized cDNA libraries or purchased from ResGen (Invitrogen Life Technologies, Carlsbad, Calif.). DNA for spotting was generated by PCR amplification using 5′amino-modified primers (BD Biosciences Clontech, Palo Alto, Calif.) derived from flanking vector sequences. Amplified DNA was purified in a 96-well format using Qiagen's Qiaquick columns (Valencia, Calif.) according to the manufacturer's recommendations. Samples were eluted in Milli-Q purified water, dried to completion and resuspended in 7 μl of 3×SSC. A fluorescent assay using PicoGreen (Molecular Probes, Eugene, Oreg.) was randomly performed on 12% of the PCR products to determine the average yield after purification; yields were ˜1.5 μg of DNA which corresponds to a concentration of 214 μg/ml. Purified DNA was arrayed from 384-well microtiter plates onto lysine-coated glass slides using an OmniGrid II microarrayer (GeneMachines, San Carlos, Calif.). After printing, DNA was cross-linked to the glass with 65 mjoules UV irradiation and reactive amines were blocked by treatment with succinic anhydride.
Total RNA was extracted from cells using Qiagen's RNeasy kit; two wells from a 6 well plate were pooled to yield a total of 4×10^5 cells per treatment. RNA was amplified using a modified Eberwine protocol^5 that incorporated a polyA tail into the amplified RNA. Fluorescently-labeled cDNA probes were generated by reverse transcription of 4 μg of RNA with SuperScript II (Invitrogen Life Technologies, Carlsbad, Calif.) using anchored dT primers in the presence of Cy3 or Cy5 dUTP (Amersham, Piscataway, N.J.). Labeled cDNA probe pairs were precipitated with ethanol and purified using Qiaquick columns. Twenty μg each of poly(A) DNA, yeast tRNA, and human Cot1 DNA (Applied Genetics, Melbourne, Fla.) was added to the eluant. The samples were dried to completion and resuspended in 12.5 μl 3×SSC, 0.1% SDS. Probes were heated to 95° C. for 5 minutes, applied to the arrays under a 22 mm^2 cover slip and allowed to hybridize for at least 16 h at 65° C. The arrays were washed at 55° C. for 10 minutes in 2×SSC, 0.1% SDS, followed by two washes at room temperature in 1×SSC (10 min) and 0.2×SSC (15 min). Hybridization of each fluorophore was quantified using an Axon GenePix 4000A scanner.
Differential expression values were expressed as the ratio of the median of background-subtracted fluorescent intensity of the experimental RNA to the median of background-subtracted fluorescent intensity of the control RNA. For ratios greater than or equal to 1.0, the ratio was expressed as a positive value. For ratios less than 1.0, the ratio was expressed as the negative reciprocal (i.e., a ratio of 0.5=−2.0). Median ratios were normalized to 1.0 using two pools of 3000 randomly chosen cDNAs in each pool. Six replicates of each of the two pools were printed in 4 evenly distributed blocks of the array. Expression data was rejected if neither channel produced a signal of at least 2.0-fold over background. Differential expression ratios were determined as the mean of the two values from dye-swapped duplicates.

[5] = tested on: acute myocardial injury; experiment: Systolic blood pressure (tail cuff) in L-NAME/AngII acute myocardial injury model; type: in vivo; conditions: rat BNP i.v. infusion day 10 to day 14
Procedure: as §1, §2

[6] = tested on: acute myocardial injury; experiment: Heart/body weight ratio in L-NAME/AngII acute myocardial injury model; type: in vivo; conditions: L-NAME/AngII rats, rat BNP i.v. infusion day 10 to day 14
Procedure: as §1, §2

[7] = tested on: ERK; experiment: Western analysis of ERK phosphorylation; type: cell-based, human; conditions: 15 min; for effect on BNP induced ERK phosphorylation: KT5823 1 μmol/L or U0126 10 μmol/L
Procedure: as §3

[8] = tested on: acute myocardial injury; experiment: Gene expression in the heart by RT-PCR in L-NAME/AngII acute myocardial injury model; type: in vivo, rat; conditions: stimulated by L-NAME plus angiotensin II
Procedure: In a related study, a gene microassay profile of rat heart tissue was conducted. Fibrotic and extracellular matrix associated genes were stimulated in vivo by L-NAME plus angiotensin II.
as §1, §2

[9] = tested on: human cardiac fibroblasts; experiment: Real-time RT-PCR gene expression in cardiac fibroblasts; type: cell-based; conditions: for ACTA2 expression level relative to control / CTGF expression level relative to control / Collagen 1 expression level relative to control / Fibronectin expression level relative to control / IL6 expression level relative to control / IL11 expression level relative to control / PTGS2/COX-2 expression level relative to control / SERPINE1/PAI-1 expression level relative to control / TIMP3 expression level relative to control: normalized to 18s RNA; for effect on BNP inhibition of TGFβ-induced Collagen-1 expression, real-time RT-PCR: U0126 0.1-10 μmol/L, PD98059 10 μmol/L
Procedure: Real-time RT-PCR^18 was performed in a two-step manner. cDNA synthesis and real-time detection were carried out in a PTC-100™ Thermal Cycler (MJ Research Inc, Waltham, Mass.) and an ABI Prism™ 7700 Sequence Detection System (Applied Biosystems, Foster City, Calif.), respectively. Random hexamers (Qiagen, Valencia, Calif.) were used to generate cDNA from 200 ng RNA as described in Applied Biosystems User Bulletin #2. TaqMan™ PCR Core Reagent Kit or TaqMan™ Universal PCR Master Mix (Applied Biosystems) were used in subsequent PCR reactions according to the manufacturer's protocols. Relative quantitation of gene expression was performed using the relative standard curve method. All real-time RT-PCR reactions were performed in triplicate.
Sequence specific primers and probes were designed using Primer Express Version 2 software (Applied Biosystems). Sequences of primers and probes can be found in Table 1 below. Expression levels were normalized to 18S rRNA. The selection of 18S rRNA as an endogenous control was based on an evaluation of the ΔCT levels (Applied Biosystems document # 4308134C) of 6 “housekeeping” genes: Cyclophilin A, 18S, GAPDH, β-actin, β-Glucuronidase, and Hypoxanthine Guanine Phosphoribosyl Transferase.

[10] = Degradation of added BNP in cardiac fibroblast culture (immunoreactive assays and cGMP stimulation cell bioassays); type: in vitro ADME; conditions: human, primary human cardiac fibroblasts in culture, within 24 h, read-out: added BNP metabolized
Procedure: Two lots of primary human cardiac fibroblasts, derived from a person (lot 1) and a person (lot 2), were provided by Cambrex Bio Science (Walkersville, Md.). […] Cells at passage 3-5 were cultured in FGM containing 15% FBS. At confluence, cells were split and cultured in 6-well plates for 24 h.

[11] = rat BNP i.v. infusion day 10 to day 14
[12] = TGFβ-stimulated cells, microarray

CC[C@H](C)[C@@H]1NC(=O)[C@H](CCCNC(=N)N)NC(=O)[C@H](CC(=O)O)NC(=O)[C@H](CCSC)NC(=O)[C@H](CCCCN)NC(=O)[C@H](CCCNC(=N)N)NC(=O)CNC(=O)[C@H](Cc2ccccc2)NC(=O)[C@@H](NC(=O)CNC(=O)[C@H](CO)NC(=O)CNC(=O)[C@H](CCC(N)=O)NC(=O)[C@@H](NC(=O)[C@H](CCSC)NC(=O)[C@H](CCCCN)NC(=O)[C@@H]2CCCN2C(=O)[C@@H](N)CO)C(C)C)CSSC[C@@H](C(=O)N[C@@H](CCCCN)C(=O)N[C@H](C(=O)N[C@@H](CC(C)C)C(=O)N[C@@H](CCCNC(=N)N)C(=O)N[C@@H](CCCNC(=N)N)C(=O)N[C@@H](Cc2c[nH]cn2)C(=O)O)C(C)C)NC(=O)CNC(=O)[C@H](CC(C)C)NC(=O)CNC(=O)[C@H](CO)NC(=O)[C@H](CO)NC(=O)[C@H](CO)NC(=O)[C@H](CO)NC1=O [BNP, brain natriuretic peptide]
plasma aldosterone [1]: 6.6 ± 0.16 ng/mL
effect on cardiac output [2]: increases
effect on heart rate [2]: no effect
effect on maximum dP/dt [2]: increased
effect on minimum dP/dt [2]: increased
arterial elastance [2, 11]: 42.6±5.1 mmHg/ul
diastolic volume [2, 11]: 22.4 ± 1.1 µL
ejection fraction [2, 11]: 20.4±2.4%
stroke volume [2, 11]: 4.74 ± 0.73 µL
stroke work [2, 11]: 531.5±99.1 mmH*ul
effect on TGFβ-induced Fibronectin protein expression [3]: inhibited
inhibition of TGFβ-stimulated Collagen 1 protein synthesis [3]: ~75%
TGFβ-regulated gene expression events opposed ([4]; 24 h): ~88%
TGFβ-regulated gene expression events opposed ([4]; 48 h): ~85%
effect on TGFβ-induction of PTGS2 (COX2), TNFAIP6 and TNFSF4 [4, 12]: reversed
effect on TGFβ-regulated cell proliferation genes (PDGFA, IGFBP10, IGF1, PTHLH, CDC25B, CUL5) [4, 12]: opposed
effect on fibrosis and ECM gene cluster up-regulated by TGFβ [4, 12]: down-regulated
effect on gene expression in unstimulated human cardiac fibroblasts ([4]; microarray, 24 and 48 h): no significant effects
effect on systolic blood pressure raised by L-NAME+AngII [5]: no effect
heart/body weigh ratio [6]: 0.0029±0.001
ERK phosphorylation ([7]; BNP 0.5 μmol/L): activates ERK
mRNA expression for collagen I in rat heart [8]: markedly reduced
mRNA expression for collagen III in rat heart [8]: markedly reduced
mRNA expression for fibronectin in rat heart [8]: markedly reduced
effect on TGFβ induction of Collagen 1 mRNA levels ([9]; 6, 24 and 48 h): blocked
ACTA2 expression level relative to control ([9]; 6 h, lot 1): 0.8 ± 0.12
CTGF expression level relative to control ([9]; 6 h, lot 1): 0.9 ± 0.24
Collagen 1 expression level relative to control ([9]; 6 h, lot 1): 1.0 ± 0.05
Fibronectin expression level relative to control ([9]; 6 h, lot 1): 0.9 ± 0.19
IL6 expression level relative to control ([9]; 6 h, lot 1): 0.9 ± 0.02
IL11 expression level relative to control ([9]; 6 h, lot 1): 1.1 ± 0.04
PTGS2/COX-2 expression level relative to control ([9]; 6 h, lot 1): 1.2 ± 0.22
SERPINE1/PAI-1 expression level relative to control ([9]; 6 h, lot 1): 0.7 ± 0.08
TIMP3 expression level relative to control ([9]; 6 h, lot 1): 0.9 ± 0.11
ACTA2 expression level relative to control ([9]; 24 h, lot 1): 0.9 ± 0.11
CTGF expression level relative to control ([9]; 24 h, lot 1): 1.0 ± 0.29
Collagen 1 expression level relative to control ([9]; 24 h, lot 1): 1.1 ± 0.13
Fibronectin expression level relative to control ([9]; 24 h, lot 1): 1.0 ± 0.10
IL6 expression level relative to control ([9]; 24 h, lot 1): 0.9 ± 0.21
PTGS2/COX-2 expression level relative to control ([9]; 24 h, lot 1): 1.2 ± 0.38
SERPINE1/PAI-1 expression level relative to control ([9]; 24 h, lot 1): 0.7 ± 0.01
TIMP3 expression level relative to control ([9]; 24 h, lot 1): 1.0 ± 0.12
ACTA2 expression level relative to control ([9]; 24 h, lot 2): 0.9 ± 0.25
Fibronectin expression level relative to control ([9]; 24 h, lot 2): 0.9 ± 0.24
IL6 expression level relative to control ([9]; 24 h, lot 2): 0.9 ± 0.07
IL11 expression level relative to control ([9]; 24 h, lot 2): 1.0 ± 0.05
SERPINE1/PAI-1 expression level relative to control ([9]; 24 h, lot 2): 0.7 ± 0.11
TIMP3 expression level relative to control ([9]; 24 h, lot 2): 0.7 ± 0.09
effect on TGFβ-induced Fibronectin mRNA expression ([9]; 48 h): inhibited
ACTA2 expression level relative to control ([9]; 48 h, lot 1): 1.0 ± 0.03
Collagen 1 expression level relative to control ([9]; 48 h, lot 1): 1.2 ± 0.03
Fibronectin expression level relative to control ([9]; 48 h, lot 1): 1.1 ± 0.04
IL6 expression level relative to control ([9]; 48 h, lot 1): 0.9 ± 0.03
IL11 expression level relative to control ([9]; 48 h, lot 1): 0.7 ± 0.10
PTGS2/COX-2 expression level relative to control ([9]; 48 h, lot 1): 1.0 ± 0.12
SERPINE1/PAI-1 expression level relative to control ([9]; 48 h, lot 1): 0.9 ± 0.00
TIMP3 expression level relative to control ([9]; 48 h, lot 1): 0.9 ± 0.00
ACTA2 expression level relative to control ([9]; 48 h, lot 2): 0.7 ± 0.11
Collagen 1 expression level relative to control ([9]; 48 h, lot 2): 1.0 ± 0.01
Fibronectin expression level relative to control ([9]; 48 h, lot 2): 1.0 ± 0.11
IL6 expression level relative to control ([9]; 48 h, lot 2): 0.9 ± 0.06
IL11 expression level relative to control ([9]; 48 h, lot 2): 0.8 ± 0.09
PTGS2/COX-2 expression level relative to control ([9]; 48 h, lot 2): 1.0 ± 0.06
SERPINE1/PAI-1 expression level relative to control ([9]; 48 h, lot 2): 0.8 ± 0.03
TIMP3 expression level relative to control ([9]; 48 h, lot 2): 0.6 ± 0.00
metabolised at 24 h [10]: 50%

COC(=O)[C@@]1(OC)C[C@H]2O[C@]1(C)n1c3ccccc3c3c4c(c5c6ccccc6n2c5c31)C(=O)N(C)C4 [KT5823]
effect on BNP induced ERK phosphorylation [7]: completely blocked

COc1cccc(-c2cc(=O)c3ccccc3o2)c1N [PD98059]
effect on BNP inhibition of TGFβ-induced Collagen-1 expression, Western blot [3]: reversed
effect on BNP inhibition of TGFβ-induced Collagen-1 expression, real-time RT-PCR ([9]; 48 h): reversed

N#CC(=C(/N)Sc1ccccc1N)/C(C#N)=C(\N)Sc1ccccc1N [U0126]
effect on BNP inhibition of TGFβ-induced Collagen-1 expression, Western blot [3]: reversed
effect on BNP induced ERK phosphorylation [7]: completely blocked
effect on BNP inhibition of TGFβ-induced Collagen-1 expression, real-time RT-PCR ([9]; 48 h): reversed
